Data: patent US10947252B2, “Inhibitors of KEAP1-Nrf2 protein-protein interaction” (Janssen Pharmaceutica NV, priority 2018, dated 2021)

The compounds below were run on Glo-Response ARE-luc2P HEK293 cell line (assay: ARE luciferase reporter cell-based assay). Settings: Homo sapiens, HEK293, 24 h, average of results obtained.
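Also: luciferase signal tracks Nrf2 activation of the ARE once compounds disrupt KEAP1-Nrf2 binding, read with One-Glo reagent, DMSO serving as low control.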

Row | Structure (SMILES) | EC50 [µM]
1 | Cc1ccc([C@H](CC(=O)O)c2ccc3c(nnn3CC3CC3)c2C)cc1CN1CC2(CC2)N(C)c2ncccc2S1(=O)=O (single isomer, unassigned) [Example 78, (*S)-3-(1-(Cyclopropylmethyl)-4-methyl-1H-benzo[d][1,2,3]triazol-5-yl)-3-(4-methyl-3-((5′-methyl-1′,1′-dioxido-5′H-spiro[cyclopropane-1,4′-pyrido[2,3-f][1,2,5]thiadiazepin]-2′(3′H)-yl)methyl)phenyl)propanoic Acid] | 0.0089
2 | Cc1c([C@H](CC(=O)O)c2ccc(Cl)c(CN3CC4(COC4)Oc4ccccc4S3(=O)=O)c2)ccn2c(C(F)(F)F)nnc12 (single isomer, unassigned) [Example 96, (*R)-3-(4-Chloro-3-((1′,1′-dioxoidospiro[benzo[b]]oxethiazepine-4,3′-oxetan]-2(3H)-yl)methyl)phenyl)-3-(8-methyl-3-(trifluoromethyl)-[1,2,4]triazolo[4,3-a]pyridine-7-yl)propanoic Acid] | 0.491
3 | Cc1c([C@@H](CC(=O)O)c2ccc(Cl)c(CN3CC4(COC4)Oc4ccccc4S3(=O)=O)c2)ccn2c(C(F)(F)F)nnc12 (single isomer, unassigned) [Example 97, (*S)-3-(4-Chloro-3-((1′,1′-dioxoidospiro[benzo[b]]oxethiazepine-4,3′-oxetan]-2(3H)-yl)methyl)phenyl)-3-(8-methyl-3-(trifluoromethyl)-[1,2,4]triazolo[4,3-a]pyridine-7-yl)propanoic Acid] | 5.29
4 | Cc1ccc([C@H](CC(=O)O)c2ccn3c(C(F)(F)F)nnc3c2C)cc1CN1CC2(CC2)Oc2ccc(F)cc2S1(=O)=O (single isomer, unassigned) [Example 98, (*S)-3-(3-((8-Fluoro-1,1-dioxidospiro[benzo[b][1,4,5]oxathiazepin]-4,1′-cyclopropan]-2(3H)-yl)methyl)-4-methylphenyl)-3-(8-methyl-3-(trifluoromethyl)-[1,2,4]triazolo[4,3-a]pyridin-7-yl)propanoic Acid] | 0.016
5 | Cc1ccc([C@H](CC(=O)O)c2ccn3c(C(F)(F)F)nnc3c2C)cc1CN1CC2(CC2)Oc2nc(Cl)ccc2S1(=O)=O (single isomer, unassigned) [Example 100, (*S)-3-(3-((7′-Chloro-1′,1′-dioxidospiro(cyclopropane-1.4′-pyrido[2,3-b][1,4,5]oxathiazepin]-2′(3′H)-yl)methyl)-4-methylphenyl)-3-(8-methyl-3-(trifluoromethyl)-[1,2,4]triazolo[4,3-a]pyridin-7-yl)propanoic Acid] | 0.0133
6 | COCCCOc1ccc2c(n1)OC1(CC1)CN(Cc1cc([C@H](CC(=O)O)c3ccn4c(C(F)(F)F)nnc4c3C)ccc1C)S2(=O)=O (single isomer, unassigned) [Example 109, (*S)-3-(-3-((7′-((3-Methoxypropoxy)-1′,1′-dioxidospiro[cyclopropane-1,4′-pyrido[2,3-b][1,4,5]oxathiazepin]-2′(3′H)-yl)methyl)-4-methylphenyl)-3-(8-methyl-3-(trifluoromethyl)-[1,2,4[triazolo[4,3-a]pyridine-7-yl)propanoic Acid] | 0.128
7 | Cc1ccc([C@H](CC(=O)O)c2ccn3c(C(F)(F)F)nnc3c2C)cc1CN1CC2(CC2)Oc2nc(N(C)CCO)ccc2S1(=O)=O (single isomer, unassigned) [Example 110, (*S)-3-(-3-((7′-((3-Hydroxyethyl)(methyl)amino)-1′,1′-dioxidospiro[cyclopropane-1,4′-pyrido[2,3-b][1,4,5]oxathiazepin]-2′(3′H)-yl)methyl)-4-methylphenyl)-3-(8-methyl-3-(trifluoromethyl)-[1,2,4[triazolo[4,3-a]pyridine-7-yl)propanoic Acid] | 0.485
8 | CCCCNc1ccc2c(n1)OC1(CC1)CN(Cc1cc([C@H](CC(=O)O)c3ccn4c(C(F)(F)F)nnc4c3C)ccc1C)S2(=O)=O (single isomer, unassigned) [Example 113, (*S)-3-(3-((7′-(Butylamino)-1′,1′-dioxidospiro[cyclopropane-1,4′-pyrido[2,3-b][1,4,5]oxathiazepin]-2′(3′H)-yl)methyl)-4-methylphenyl)-3-(8-methyl-3-(trifluoromethyl)-[1,2,4[triazolo[4,3-a]pyridine-7-yl)propanoic Acid] | 0.49
9 | Cc1ccc([C@@H](c2ccn3c(C(F)(F)F)nnc3c2C)C(C)(C)C(=O)O)cc1CN1CC2(CCOCC2)Oc2nc(NCCCO)ccc2S1(=O)=O (single isomer, unassigned) [Example 115, (*S)-3-(3-((7′-((3-Hydroxypropyl)amino)-1′,1′-dioxido-2,3,5,6-tetrahydrospiro[pyran-4,4′-pyrido[2,3-b][1,4,5]oxathiazepin]-2′(3′H)-yl)methyl)-4-methylphenyl)-2,2-dimethyl-3-(8-methyl-3-(trifluoromethyl)-[1,2,4[triazolo[4,3-a]pyridine-7-yl)propanoic Acid] | 0.133
10 | Cc1ccc([C@H](c2ccn3c(C(F)(F)F)nnc3c2C)C(C)(C)C(=O)O)cc1CN1CC2(CCOCC2)Oc2nc(NCCCO)ccc2S1(=O)=O (single isomer, unassigned) [Example 116, (*R)-3-(3-((7′-((3-Hydroxypropyl)amino)-1′,1′-dioxido-2,3,5,6-tetrahydrospiro[pyran-4,4′-pyrido[2,3-b][1,4,5]oxathiazepin]-2′(3′H)-yl)methyl)-4-methylphenyl)-2,2-dimethyl-3-(8-methyl-3-(trifluoromethyl)-[1,2,4[triazolo[4,3-a]pyridine-7-yl)propanoic Acid] | 0.991
11 | Cc1ccc([C@@H](c2ccn3c(C(F)(F)F)nnc3c2C)C(C)(C)C(=O)O)cc1CN1CC2(CCOCC2)Oc2nc(OCCN3CCCCC3)ccc2S1(=O)=O (single isomer, unassigned) [Example 127] | 0.0118
12 | CCn1nnc2c(C)c([C@@H](CC(=O)O)c3ccc(C)c(CN4C[C@H]5COCCN5c5ncccc5S4(=O)=O)c3)ccc21 (single isomer, unassigned) [Example 136, (*S)-3-(3-(((*S)-5,5-Dioxido-7a,8,10,11-tetrahydro-[1,4]oxazino[3,4-d]pyrido[2,3-f][1,2,5]thiadiazepin-6(7H)-yl)methyl)-4-methylphenyl)-3-(1-ethyl-4-methyl-1H-benzo[d][1,2,3]triazol-5-yl)propanoic Acid] | 0.0083
13 | CCn1nnc2c(C)c([C@H](CC(=O)O)c3ccc(C)c(CN4C[C@H]5COCCN5c5ncccc5S4(=O)=O)c3)ccc21 (single isomer, unassigned) [Example 137, (*R)-3-(3-(((*S)-5,5-Dioxido-7a,8,10,11-tetrahydro-[1,4]oxazino[3,4-d]pyrido[2,3-f][1,2,5]thiadiazepin-6(7H)-yl)methyl)-4-methylphenyl)-3-(1-ethyl-4-methyl-1H-benzo[d][1,2,3]triazol-5-yl)propanoic Acid] | 0.3
14 | CCn1nnc2c(C)c([C@@H](CC(=O)O)c3ccc(C)c(CN4C[C@@H]5COCCN5c5ncccc5S4(=O)=O)c3)ccc21 (single isomer, unassigned) [Example 139, (*S)-3-(3-(((*R)-5,5-Dioxido-7a,8,10,11-tetrahydro-[1,4]oxazino[3,4-d]pyrido[2,3-f][1,2,5]thiadiazepin-6(7H)-yl)methyl)-4-methylphenyl)-3-(1-ethyl-4-methyl-1H-benzo[d][1,2,3]triazol-5-yl)propanoic Acid] | 0.0033
15 | CCn1nnc2c(C)c([C@H](CC(=O)O)c3ccc(C)c(CN4C[C@@H]5COCCN5c5ncccc5S4(=O)=O)c3)ccc21 (single isomer, unassigned) [Example 140, (*R)-3-(3-(((*R)-5,5-Dioxido-7a,8,10,11-tetrahydro-[1,4]oxazino[3,4-d]pyrido[2,3-f][1,2,5]thiadiazepin-6(7H)-yl)methyl)-4-methylphenyl)-3-(1-ethyl-4-methyl-1H-benzo[d][1,2,3]triazol-5-yl)propanoic Acid] | 0.019
16 | CCn1nnc2c(C)c([C@@H](CC(=O)O)c3ccc(C)c(CN4C[C@@H]5CCCCN5c5ncccc5S4(=O)=O)c3)ccc21 (single isomer, unassigned) [Example 142, (*S)-3-(3-(((*S)-5,5-Dioxido-7,7a,8,9,10,11-hexahydro-6H-dipyrido[2,1-d:2′,3′-f][1,2,5]thiadiazepin-6-yl)methyl)-4-methylphenyl)-3-(1-ethyl-4-methyl-1H-benzo[d][1,2,3]triazol-5-yl)propanoic Acid] | 0.0011
17 | CCn1nnc2c(C)c([C@H](CC(=O)O)c3ccc(C)c(CN4C[C@@H]5CCCCN5c5ncccc5S4(=O)=O)c3)ccc21 (single isomer, unassigned) [Example 143, (*R)-3-(3-(((*S)-5,5-Dioxido-7,7a,8,9,10,11-hexahydro-6H-dipyrido[2,1-d:2′,3′-f][1,2,5]thiadiazepin-6-yl)methyl)-4-methylphenyl)-3-(1-ethyl-4-methyl-1H-benzo[d][1,2,3]triazol-5-yl)propanoic Acid] | 0.045
18 | CCn1nnc2c(C)c([C@@H](CC(=O)O)c3ccc(C)c(CN4C[C@H]5CCCCN5c5ncccc5S4(=O)=O)c3)ccc21 (single isomer, unassigned) [Example 145, (*S)-3-(3-(((*R)-5,5-Dioxido-7,7a,8,9,10,11-hexahydro-6H-dipyrido[2,1-d:2′,3′-f][1,2,5]thiadiazepin-6-yl)methyl)-4-methylphenyl)-3-(1-ethyl-4-methyl-1H-benzo[d][1,2,3]triazol-5-yl)propanoic Acid] | 0.0011
19 | CCn1nnc2c(C)c([C@H](CC(=O)O)c3ccc(C)c(CN4C[C@H]5CCCCN5c5ncccc5S4(=O)=O)c3)ccc21 (single isomer, unassigned) [Example 146, (*R)-3-(3-(((*R)-5,5-Dioxido-7,7a,8,9,10,11-hexahydro-6H-dipyrido[2,1-d:2′,3′-f][1,2,5]thiadiazepin-6-yl)methyl)-4-methylphenyl)-3-(1-ethyl-4-methyl-1H-benzo[d][1,2,3]triazol-5-yl)propanoic Acid] | 0.0042
20 | CCn1nnc2c(C)c([C@@H](CC(=O)O)c3ccc(C)c(CN4C[C@H]5CCCN5c5ccccc5S4(=O)=O)c3)ccc21 (single isomer, unassigned) [Example 153, (*S)-3-(3-(((R)-5,5-Dioxido-7a,8,9,10-tetrahydrobenzo[f]pyrrolo[2,1-d][1,2,5]thiadiazepin-6(7H)-yl)methyl)-4-methylphenyl)-3-(1-ethyl-4-methyl-1H-benzo[d][1,2,3]triazol-5-yl)propanoic Acid] | 0.003
